Source: PubChem BioAssay AID248 (DTP/NCI, 2004)
Where “and” joins values, the source holds several entries; their conditions need not be identical. Identical values can stand only once. Inconclusive results and toxic doses are left out. No stated cut-off is given here; in the data, active means T/C of 150% or more; inactive means T/C below 125%. Peptide text beside a SMILES is read from it. * marks the point of attachment. Cbz = O=C(OCc1ccccc1)*; CH2Cl = ClC*

Test system: L1210 leukemia ip in BDF1 mice, survival T/C
Experiment: NCI In Vivo Anticancer Drug Screen. Data for tumor model L1210 Leukemia (intraperitoneal) in B6D2F1 (BDF1) mice
Details: endpoint: mean survival time, higher = longer survival
Summary of the method: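 In this screen, tumor-bearing mice given compound are compared to those given vehicle, and their survival values are reported as a treated-to-control quotient.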

[1] = dose: 100.0 mg/kg/injection, schedule: Q01DX001 (ip), vehicle: saline
[2] = dose: 200.0 mg/kg/injection, schedule: Q01DX001 (ip), vehicle: saline
[3] = dose: 400.0 mg/kg/injection, schedule: Q01DX001 (ip), vehicle: saline
[4] = dose: 100.0 mg/kg/injection, schedule: Q01DX001 (ip), vehicle: Klucel (hydroxypropylcellulose) (HPC)
[5] = dose: 200.0 mg/kg/injection, schedule: Q01DX001 (ip), vehicle: Klucel (hydroxypropylcellulose) (HPC)
[6] = dose: 100.0 mg/kg/injection, schedule: Q04DX003 (ip), vehicle: saline with Tween-80
[7] = dose: 200.0 mg/kg/injection, schedule: Q04DX003 (ip), vehicle: saline with Tween-80
[8] = dose: 400.0 mg/kg/injection, schedule: Q04DX003 (ip), vehicle: saline with Tween-80
[9] = dose: 100.0 mg/kg/injection, schedule: Q04DX003 (ip), vehicle: Klucel (hydroxypropylcellulose) (HPC)
[10] = dose: 200.0 mg/kg/injection, schedule: Q04DX003 (ip), vehicle: Klucel (hydroxypropylcellulose) (HPC)
[11] = dose: 400.0 mg/kg/injection, schedule: Q04DX003 (ip), vehicle: Klucel (hydroxypropylcellulose) (HPC)
[12] = dose: 150.0 mg/kg/injection, schedule: Q01DX001 (ip), vehicle: carboxymethylcellulose (CMC)

Measured: T/C

N#Cc1ccc(NC(=O)NNC(=O)CCCC(=O)NNC(=O)Nc2ccc(C#N)cc2)cc1
inactive: dose: 50.0 mg/kg/injection, schedule: Q01DX001 (ip), vehicle: saline 95 % of control | [1] 97 % of control | [2] 101 % of control | [3] 95 % of control

CC(C)(CBr)C(=O)O
inactive: [1] 95 % of control | [2] 95 % of control | [3] 100 % of control

COc1cc2ccc(CN3CCCC3C(=O)OCc3ccccc3)cc2cc1OC (centres undefined)
inactive: dose: 100.0 mg/kg/injection, schedule: Q01DX009 (ip), vehicle: saline sonified 100 % of control | dose: 100.0 mg/kg/injection, schedule: Q04DX003 (ip), vehicle: saline sonified 95 % of control | dose: 200.0 mg/kg/injection, schedule: Q01DX009 (ip), vehicle: saline sonified 96 % of control | dose: 200.0 mg/kg/injection, schedule: Q04DX003 (ip), vehicle: saline sonified 96 % of control | dose: 400.0 mg/kg/injection, schedule: Q01DX009 (ip), vehicle: saline sonified 91 % of control | dose: 400.0 mg/kg/injection, schedule: Q04DX003 (ip), vehicle: saline sonified 96 % of control

CC(C)CC(NC(=O)CNC(=O)OCc1ccccc1)C(=O)NC(Cc1ccccc1)C(=O)CCl (stereo not drawn) (Cbz-Gly-Leu-Phe-CH2Cl; configuration not given here)
inactive: dose: 25.0 mg/kg/injection, schedule: Q04DX003 (ip), vehicle: Klucel (hydroxypropylcellulose) (HPC) 102 % of control | dose: 50.0 mg/kg/injection, schedule: Q04DX003 (ip), vehicle: Klucel (hydroxypropylcellulose) (HPC) 106 % of control | dose: 75.0 mg/kg/injection, schedule: Q04DX003 (ip), vehicle: Klucel (hydroxypropylcellulose) (HPC) 94 % of control and 90 % of control | [4] 92 % of control | [5] 92 % of control

COc1ccc2c(ccc3ccc4ccccc4c32)c1
inactive: [4] 105 % of control | [5] 102 % of control | dose: 400.0 mg/kg/injection, schedule: Q01DX001 (ip), vehicle: Klucel (hydroxypropylcellulose) (HPC) 100 % of control

CCN(CC)CCOC(=O)c1ccc(C(Cl)Cl)cc1
inactive: dose: 50.0 mg/kg/injection, schedule: Q01DX009 (ip), vehicle: saline 88 % of control | dose: 100.0 mg/kg/injection, schedule: Q01DX009 (ip), vehicle: saline 88 % of control

CC1=N/C(=C/c2ccccc2)C(=O)O1
inactive: [6] 97 % of control | [7] 92 % of control | [8] 98 % of control

CCOC(=O)C(Cc1ccc(O)cc1)NP(=O)(OCCCl)OCCCl (centres undefined)
inactive: dose: 100.0 mg/kg/injection, schedule: Q01DX009 (ip), vehicle: Klucel (hydroxypropylcellulose) (HPC) 100 % of control | [9] 95 % of control | dose: 200.0 mg/kg/injection, schedule: Q01DX009 (ip), vehicle: Klucel (hydroxypropylcellulose) (HPC) 98 % of control | [10] 90 % of control | dose: 400.0 mg/kg/injection, schedule: Q01DX009 (ip), vehicle: Klucel (hydroxypropylcellulose) (HPC) 100 % of control | [11] 94 % of control

CC(C)c1ccc(N2C(=O)CSC2=S)cc1
inactive: dose: 100.0 mg/kg/injection, schedule: Q04DX002 (ip), vehicle: saline with Tween-80 97 % of control | dose: 200.0 mg/kg/injection, schedule: Q04DX002 (ip), vehicle: saline with Tween-80 87 % of control

ClCc1c(CCl)c2c(c3c1CCCC3)CCCC2
inactive: [9] 100 % of control | [10] 100 % of control | [11] 103 % of control

CC(=O)CC(=O)N(C)c1ccccc1
inactive: dose: 75.0 mg/kg/injection, schedule: Q01DX001 (ip), vehicle: carboxymethylcellulose (CMC) 104 % of control | [12] 105 % of control

CC(=O)Nc1nc(=O)n(CC(=O)c2cccs2)cc1F
inactive: dose: 100.0 mg/kg/injection, schedule: Q01DX009 (ip), vehicle: saline with Tween-80 98 % of control | [6] 102 % of control | dose: 200.0 mg/kg/injection, schedule: Q01DX009 (ip), vehicle: saline with Tween-80 98 % of control | [7] 97 % of control | [8] 101 % of control

CCCCCCC(O)CO (centres undefined)
inactive: dose: 100.0 mg/kg/injection, schedule: Q04DX003 (ip), vehicle: saline 105 % of control | dose: 200.0 mg/kg/injection, schedule: Q04DX003 (ip), vehicle: saline 112 % of control | dose: 400.0 mg/kg/injection, schedule: Q04DX003 (ip), vehicle: saline 109 % of control

O=C1CC(N2C(=O)C3C4CCC(CC4)C3C2=O)C(=O)N1 (centres undefined)
inactive: [6] 96 % of control | [7] 100 % of control | [8] 112 % of control

CC(C)CCCC(=O)CCCCCCC(=O)CCN(O)C(=O)C(N)CO (centres undefined)
inactive: dose: 12.5 mg/kg/injection, schedule: Q01DX009 (ip), vehicle: acetone 93 % of control | dose: 25.0 mg/kg/injection, schedule: Q01DX009 (ip), vehicle: acetone 102 % of control | dose: 25.0 mg/kg/injection, schedule: Q04DX003 (ip), vehicle: acetone 95 % of control | dose: 50.0 mg/kg/injection, schedule: Q04DX003 (ip), vehicle: acetone 103 % of control | dose: 100.0 mg/kg/injection, schedule: Q01DX001 (ip), vehicle: acetone 97 % of control

COc1cc2c(cc1OC)C(C(N)=O)NCC2 (centres undefined)
inactive: dose: 100.0 mg/kg/injection, schedule: Q01DX001 (ip), vehicle: other 101 % of control | dose: 200.0 mg/kg/injection, schedule: Q01DX001 (ip), vehicle: other 97 % of control | dose: 400.0 mg/kg/injection, schedule: Q01DX001 (ip), vehicle: other 93 % of control

CSc1ncnc2c1ncn2/N=C/C1OC(C)OCC1O (centres undefined)
inactive: [9] 93 % of control | [10] 98 % of control | [11] 98 % of control

Nc1ccnc(SCCCCc2ccccc2)n1
inactive: dose: 100.0 mg/kg/injection, schedule: Q04DX003 (ip), vehicle: gum acacia 90 % of control | dose: 200.0 mg/kg/injection, schedule: Q04DX003 (ip), vehicle: gum acacia 93 % of control | dose: 400.0 mg/kg/injection, schedule: Q04DX003 (ip), vehicle: gum acacia 90 % of control

NC(=S)N/N=C/c1ccc(Br)cn1
inactive: dose: 6.25 mg/kg/injection, schedule: Q01DX009 (ip), vehicle: saline with Tween-80 117 % of control | dose: 12.5 mg/kg/injection, schedule: Q01DX009 (ip), vehicle: saline with Tween-80 113 % of control

CCOc1cc(/C=N\Nc2nnc(C)n2N)c(C)cc1N(CCCl)CCCl
inactive: dose: 10.5 mg/kg/injection, schedule: Q01DX015 (ip), vehicle: carboxymethylcellulose (CMC) 119 % of control | dose: 18.0 mg/kg/injection, schedule: Q01DX015 (ip), vehicle: carboxymethylcellulose (CMC) 109 % of control | dose: 44.0 mg/kg/injection, schedule: Q01DX001 (ip), vehicle: carboxymethylcellulose (CMC) 110 % of control | dose: 50.0 mg/kg/injection, schedule: Q01DX001 (ip), vehicle: carboxymethylcellulose (CMC) 120 % of control | dose: 67.0 mg/kg/injection, schedule: Q01DX001 (ip), vehicle: carboxymethylcellulose (CMC) 110 % of control and 116 % of control | dose: 100.0 mg/kg/injection, schedule: Q01DX001 (ip), vehicle: carboxymethylcellulose (CMC) 111 % of control and 124 % of control | [12] 105 % of control and 90 % of control | dose: 200.0 mg/kg/injection, schedule: Q01DX001 (ip), vehicle: carboxymethylcellulose (CMC) 105 % of control
